Laboratory results taken from PubChem BioAssay (NCI).
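GI50 marks 50% less growth. Definition used: TGI = concentration required for complete inhibition of growth.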

Key:
Experiment in all cases: inhibition of tumour cell growth, NCI panel, 384-well format
[1] = test system: 786-0 renal
[2] = test system: A498 renal
[3] = test system: A549 NSCLC
[4] = test system: ACHN renal
[5] = test system: BT-549 breast
[6] = test system: CAKI-1 renal
[7] = test system: CCRF-CEM leukemia
[8] = test system: COLO 205 colon
[9] = test system: DU-145 prostate
[10] = test system: EKVX NSCLC
[11] = test system: HCC-2998 colon
[12] = test system: HCT-15 colon
[13] = test system: HL-60(TB) leukemia
[14] = test system: HOP-62 NSCLC
[15] = test system: HOP-92 NSCLC
[16] = test system: HS 578T breast
[17] = test system: HT29 colon
[18] = test system: IGROV1 ovarian
[19] = test system: K-562 leukemia
[20] = test system: KM12 colon
[21] = test system: LOX IMVI melanoma
[22] = test system: M14 melanoma
[23] = test system: MALME-3M melanoma
[24] = test system: MCF7 breast
[25] = test system: MDA-MB-231 breast
[26] = test system: MDA-MB-435 melanoma
[27] = test system: MDA-MB-468 breast
[28] = test system: MOLT-4 leukemia
[29] = test system: NCI-H226 lung
[30] = test system: NCI-H23 lung
[31] = test system: NCI-H322M lung
[32] = test system: NCI-H460 NSCLC
[33] = test system: NCI-H522 lung
[34] = test system: NCI/ADR-RES ovarian
[35] = test system: OVCAR-3 ovarian
[36] = test system: OVCAR-4 ovarian
[37] = test system: OVCAR-5 ovarian
[38] = test system: OVCAR-8 ovarian
[39] = test system: PC-3 prostate
[40] = test system: RPMI-8226 leukemia
[41] = test system: RXF 393 renal
[42] = test system: SF-268 CNS
[43] = test system: SF-295 CNS
[44] = test system: SF-539 CNS
[45] = test system: SK-MEL-28 melanoma
[46] = test system: SK-MEL-5 melanoma
[47] = test system: SK-OV-3 ovarian
[48] = test system: SN12C renal
[49] = test system: SNB-19 CNS
[50] = test system: SNB-75 CNS
[51] = test system: SR leukemia
[52] = test system: SW-620 colon
[53] = test system: T-47D breast
[54] = test system: TK-10 renal
[55] = test system: U251 glioblastoma
[56] = test system: UACC-257 melanoma
[57] = test system: UACC-62 melanoma
[58] = test system: UO-31 renal

## COc1cc2c(Oc3ccc4[nH]c(C)cc4c3F)ncnc2cc1OCCCN1CCCC1
[1]
  GI50: 1.33 µM
  TGI: 2.63 µM
[2]
  GI50: 1.24 µM
  TGI: 2.59 µM
[3]
  GI50: 1.46 µM
  TGI: 2.97 µM
[4]
  GI50: 1.2 µM
  TGI: 2.64 µM
[5]
  GI50: 1.04 µM
  TGI: 2.22 µM
[6]
  GI50: 1.05 µM
  TGI: 2.36 µM
[7]
  GI50: 1.63 µM
  TGI: 2.99 µM
[8]
  GI50: 1.69 µM
  TGI: 3.35 µM
[9]
  GI50: 1.92 µM
  TGI: 3.77 µM
[10]
  GI50: 1.16 µM
  TGI: 2.84 µM
[11]
  GI50: 1.59 µM
  TGI: 2.97 µM
[12]
  GI50: 1.21 µM
  TGI: 2.53 µM
[13]
  GI50: 1.93 µM
  TGI: 3.35 µM
[14]
  GI50: 1.5 µM
  TGI: 2.93 µM
[15]
  GI50: 0.578 µM
  TGI: 1.92 µM
[16]
  GI50: 1.26 µM
  TGI: 2.53 µM
[17]
  GI50: 1.46 µM
  TGI: 2.8 µM
[18]
  GI50: 0.632 µM
  TGI: 1.95 µM
[19]
  GI50: 1.13 µM
  TGI: 2.37 µM
[20]
  GI50: 1.81 µM
  TGI: 3.28 µM
[21]
  GI50: 1.62 µM
  TGI: 2.99 µM
[22]
  GI50: 1.68 µM
  TGI: 3.06 µM
[23]
  GI50: 1.54 µM
  TGI: 2.88 µM
[24]
  GI50: 1.4 µM
  TGI: 2.74 µM
[25]
  GI50: 1.76 µM
  TGI: 3.53 µM
[26]
  GI50: 1.77 µM
  TGI: 3.41 µM
[27]
  GI50: 1.04 µM
  TGI: 2.24 µM
[28]
  GI50: 1.38 µM
  TGI: 2.68 µM
[29]
  GI50: 0.306 µM
  TGI: 1.96 µM
[30]
  GI50: 1.15 µM
  TGI: 2.8 µM
[31]
  GI50: 1.79 µM
  TGI: 4.56 µM
[32]
  GI50: 1.78 µM
  TGI: 3.27 µM
[33]
  GI50: 1.55 µM
  TGI: 2.91 µM
[34]
  GI50: 2.35 µM
  TGI: 5.9 µM
[35]
  GI50: 1.63 µM
  TGI: 3.06 µM
[36]
  GI50: 1.14 µM
  TGI: 2.43 µM
[37]
  GI50: 1.39 µM
  TGI: 3.18 µM
[38]
  GI50: 1.58 µM
  TGI: 2.96 µM
[39]
  GI50: 1.77 µM
  TGI: 3.3 µM
[40]
  GI50: 1.61 µM
  TGI: 2.97 µM
[41]
  GI50: 1.38 µM
  TGI: 2.69 µM
[42]
  GI50: 1.66 µM
  TGI: 3.22 µM
[43]
  GI50: 1.73 µM
  TGI: 3.13 µM
[44]
  GI50: 0.488 µM
  TGI: 1.83 µM
[45]
  GI50: 1.66 µM
  TGI: 3.03 µM
[46]
  GI50: 1.3 µM
  TGI: 2.58 µM
[47]
  GI50: 1.26 µM
  TGI: 2.53 µM
[48]
  GI50: 0.591 µM
  TGI: 2.41 µM
[49]
  GI50: 1.57 µM
  TGI: 4.71 µM
[50]
  GI50: 1.32 µM
  TGI: 2.74 µM
[51]
  GI50: 1.56 µM
  TGI: 2.91 µM
[52]
  GI50: 1.63 µM
  TGI: 3.1 µM
[53]
  GI50: 1.3 µM
  TGI: 2.58 µM
[54]
  GI50: 1.76 µM
  TGI: 3.28 µM
[55]
  GI50: 1.58 µM
  TGI: 3 µM
[56]
  GI50: 1.61 µM
  TGI: 2.97 µM
[57]
  GI50: 1.63 µM
  TGI: 3 µM
[58]
  GI50: 1.39 µM
  TGI: 2.77 µM
